The nature of data set [1]: Intratracheal administration of 750-2 PEG insulin in rats (Example 11, P-2002-003). The protocol: (§1) The rats were lightly anesthetized using inhaled 3.0-5.0% Isoflurane (Abbott Laboratories) mixed with oxygen for approximately 5 minutes in a plexiglass anesthesia chamber. Administration was accomplished by insertion of a gavage needle (Popper & Sons Inc.; 18×3″ W2-¼ mm ball, New Hyde Park, N.Y. 11040) fitted into a 1 mL syringe into the mouth of the rat down the trachea to just above the main carina. When inserting the gavage needle into the trachea, proper insertion was detected by feeling for the roughness of the cartilage rings under the skin of the throat using the ball of the gavage needle. Doses were administered into the lungs utilizing this method, and followed by removal of the gavage needle.
(§2) Fourteen (N=7/Group) fasted male rats (Hilltop Lab Animals, Scottsdale, Pa. (300-350 g)) with indwelling jugular vein catheters (JVC) were used for this study.
(§3) The in-vivo rat study was conducted essentially as described in Example 8 above.
Absolute bioavailability was calculated as follows: [formula]

The test system of data set [2] is blood glucose. In words: Blood glucose following intratracheal administration of 2K PEG insulin in rats (Example 12, P-2002-010). Type of data set: in vivo, male rats. To be noted: i.t.
Description: Fourteen (N=7/Group) fasted male rats (Hilltop Lab Animals, Scottsdale, Pa. (300-350 g)) with indwelling jugular vein catheters (JVC) were used for this study. […] Animal 2-3 was dropped from the study due to a clogged catheter.
Data set [3] deals with blood glucose. To be noted: i.t. The protocol:
as §1, §2

The test system of data set [4] is blood glucose. To be noted: rats, 20, 30, 40 μg/animal.
Data set [5] has as its system blood glucose. In words: Blood glucose following intratracheal administration of 750-1 PEG insulin in rats (Example 9, P-2001-025). Type of data set: in vivo, male rats. To be noted: i.t. The protocol:
as §1, §2, §3

Data set [6] deals with blood glucose. In words: Blood glucose following intratracheal administration of 750-1 PEG insulin in rats (Example 10, P-2002-001). Type of data set: in vivo, male rats. To be noted: i.t. The method, then: as §1, §2
The in-vivo intratracheal rat study was conducted essentially as described in Example 8 above.

Substance “750-2 PEG insulin: 750 PEG insulin composition prepared at molar ratio of PEG reagent (mPEG-SPA-750) to insulin of 3:1” came in with a TMax in data set [1] (rat, in vivo) of 73 min.
As to “2K PEG insulin: insulin pegylated in non-site specific (random) fashion with linear mPEG-succinimidyl propionate ~2,000 Daltons; mixture of mono and di-pegylated product”, in data set [2] (600 μg, 900 μg and 1200 μg per animal), the “glucose levels at time points past about 6 hours compared with non-pegylated insulin” value is reported as “suppressed significantly below those of non-pegylated insulin”. Moreover, the “dose response of decrease in blood glucose concentration” value in data set [2] (300-1200 μg/animal) is “Good dose response”. Besides, in data set [2] (Example 12), the “time point at which maximum glucose suppression was achieved” value is “about 3 hours”.
“N^αB1-Methoxypoly(ethylene glycol)5K- propionamido-insulin [5K PEG insulin]”: in data set [3] (150 μg/animal vs non-pegylated insulin 40 μg/animal), the “lowering of blood glucose compared with non-pegylated insulin” value is listed as “less effective than non-pegylated insulin”. Besides, the “lowering of blood glucose when administered to the lung” value in data set [3] (150 μg/animal, male rats) is “effective in lowering blood glucose”. Moreover, the “bioactivity (ability to lower blood glucose)” value in data set [4] (i.v.) is given as “possesses bioactivity”. Besides, the “glucose levels following i.v. administration” value in data set [4] is reported as “dose dependent decrease”.
For “750-1 PEG insulin: 750 PEG insulin composition prepared at molar ratio of PEG reagent (mPEG-SPA-750) to insulin of 7:1”, in data set [5] (Example 9), the “glucose suppression over the 12 hour period compared with unmodified insulin” value is given as “significantly increased”, the “onset of action (suppression of glucose)” value was “rapid onset of action comparable to native insulin” and the “time at which glucose levels had not yet returned (duration of glucose suppression)” value was greater than 12 h. Besides, in data set [5] (Example 9, 100 μg dose), the “time to reach maximum glucose lowering” value was no less than 6 h. In addition, the “time to reach maximum glucose lowering” value in data set [5] (Example 9, 300 μg dose) was no less than 8 h. Further, the “time to reach maximum glucose lowering” value in data set [5] (Example 9, 500 μg dose) was “at least 4 hours”. Also, the “duration of glucose suppression” value in data set [6] (Example 10, 80 and 160 μg/animal) is greater than 25 h. In addition, in data set [6] (Example 10, 8 hours), the “glucose levels at 8 hours, times lower than for unmodified insulin” value was “about 1.5 times”. For the same substance, in data set [1] (i.t., 80 μg/animal), the “mean serum insulin and mean blood glucose concentrations following intratracheal instillation (FIG. 10, FIG. 11)” value is “Results similar to those in Examples 9 and 10”.

For the origin of these results see US20030118510A1 (priority 2001, published 2003).
